# Measurements from ChEMBL document CHEMBL1201862, “PubChem BioAssay data set” (2004).
# Values joined by “and” are separate entries in the source; they are usually repeats but may differ in a detail not shown here. Identical values can stand only once.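 Assay format: 96-well plates, 48-hour exposure. GI50: concentration for 50% inhibition of growth.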 Active and inactive are the calls of the source. No stated cut-off is given here; in the data, active = GI50 up to about 1.1 µM and inactive = higher.
# What was measured:
# Assay in all cases: NCI anticancer screen, dose series, 48 h
# PC-3 = tested on: PC-3
# Hs-578T = tested on: Hs-578T
# HOP-62 = tested on: HOP-62
# HCC 2998 = tested on: HCC 2998
# SK-MEL-5 = tested on: SK-MEL-5
# SK-MEL-2 = tested on: SK-MEL-2
# DU-145 = tested on: DU-145
# OVCAR-3 = tested on: OVCAR-3
# ACHN = tested on: ACHN
# RPMI-8226 = tested on: RPMI-8226
# MCF7 = tested on: MCF7
# MDA-MB-435 = tested on: MDA-MB-435
# 786-0 = tested on: 786-0
# SNB-19 = tested on: SNB-19
# MOLT-4 = tested on: MOLT-4
# HCT-15 = tested on: HCT-15
# HL-60 = tested on: HL-60
# NCI-H226 = tested on: NCI-H226
# RXF 393 = tested on: RXF 393
# BT-549 = tested on: BT-549
Compound,GI50 (PC-3),GI50 (Hs-578T),GI50 (HOP-62),GI50 (HCC 2998),GI50 (SK-MEL-5),GI50 (SK-MEL-2),GI50 (DU-145),GI50 (OVCAR-3),GI50 (ACHN),GI50 (RPMI-8226),GI50 (MCF7),GI50 (MDA-MB-435),GI50 (786-0),GI50 (SNB-19),GI50 (MOLT-4),GI50 (HCT-15),GI50 (HL-60),GI50 (NCI-H226),GI50 (RXF 393),GI50 (BT-549)
COc1cccc(C2c3cc4c(cc3OC(N3CCCC3)C2c2ccccc2)OCO4)c1O (configuration not stated),8.28 µM (inactive),0.279 µM (active),21 µM (inactive),11 µM (inactive),10.8 µM (inactive),12.1 µM (inactive),11.9 µM (inactive),3.34 µM (inactive),3.72 µM (inactive),5.69 µM (inactive),8.65 µM (inactive),6.59 µM (inactive),8.32 µM (inactive),5.57 µM (inactive),3.85 µM (inactive),6 µM,,,,
CN(C)CCOC1(Cc2ccc(F)cc2)CCC(C(C)(C)C)CC1 (configuration not stated),5.85 µM (inactive) and 5.07 µM (inactive),11.7 µM (inactive) and 14 µM (inactive),7 µM (inactive) and 6.82 µM (inactive),2.96 µM (inactive) and 3.14 µM (inactive),1.93 µM (inactive) and 1.74 µM (inactive),,9.2 µM (inactive) and 9.44 µM (inactive),8.67 µM (inactive) and 13.4 µM (inactive),11 µM (inactive) and 12.9 µM (inactive),2.3 µM (inactive) and 2.48 µM (inactive),6.04 µM (inactive) and 5.24 µM (inactive),3.51 µM (inactive) and 4.54 µM (inactive),4.92 µM (inactive) and 4.2 µM (inactive),7.31 µM (inactive) and 11.9 µM (inactive),3.13 µM (inactive) and 2.61 µM (inactive),8.13 µM and 6.81 µM,2.84 µM (inactive) and 2.93 µM (inactive),9.38 µM (inactive) and 10.5 µM (inactive),0.857 µM (active),
COC(=O)[C@@H]1CN(C(=O)c2ccccc2)C(=O)N1,> 100 µM (inactive),> 100 µM (inactive),> 100 µM (inactive),,> 100 µM (inactive),,> 100 µM (inactive),> 100 µM (inactive),> 100 µM (inactive),> 100 µM (inactive),,> 100 µM (inactive),> 100 µM (inactive),> 100 µM (inactive),> 100 µM (inactive),,> 100 µM (inactive),> 100 µM (inactive),> 100 µM (inactive),
CC(=O)c1sc2c(c1OC(=O)c1ccc(Cl)cc1)c(=O)n(-c1ccccc1)c(=S)n2-c1ccccc1,3.56 µM (inactive),2.08 µM (inactive),3.85 µM (inactive),19.1 µM (inactive),2 µM (inactive),1.27 µM (inactive),25.9 µM (inactive),14.2 µM (inactive),2.96 µM (inactive),1.21 µM (inactive),23.2 µM (inactive),4.14 µM (inactive),3.52 µM (inactive),3.56 µM (inactive),1.56 µM (inactive),9.18 µM,9.23 µM (inactive),1.59 µM (inactive),2.22 µM (inactive),
COc1ccc(C2OC(c3ccncc3)=NN2C)cc1F (configuration not stated),> 100 µM (inactive),> 100 µM (inactive),> 100 µM (inactive),> 100 µM (inactive),> 100 µM (inactive),> 100 µM (inactive),> 100 µM (inactive),> 100 µM (inactive),> 100 µM (inactive),> 100 µM (inactive),> 100 µM (inactive),> 100 µM (inactive),> 100 µM (inactive),> 100 µM (inactive),41.9 µM (inactive),> 100 µM,> 100 µM (inactive),> 100 µM (inactive),> 100 µM (inactive),
Cn1c(=O)oc2cc(C(=O)CN3CCN(Cc4ccc5c(c4)OCO5)CC3)c(Cl)cc21,> 100 µM (inactive),> 100 µM (inactive),> 100 µM (inactive),> 100 µM (inactive),> 100 µM (inactive),> 100 µM (inactive),> 100 µM (inactive),,> 100 µM (inactive),> 100 µM (inactive),> 100 µM (inactive),,> 100 µM (inactive),> 100 µM (inactive),> 100 µM (inactive),> 100 µM,> 100 µM (inactive),,> 100 µM (inactive),
Cc1ccc(C2SCc3nc4ccccc4n32)cc1 (configuration not stated),1.88 µM (inactive),2.61 µM (inactive),3.44 µM (inactive),10.8 µM (inactive),1.53 µM (inactive),1.1 µM (active),4.29 µM (inactive),4.72 µM (inactive),5.32 µM (inactive),5.31 µM (inactive),4.68 µM (inactive),0.451 µM (active),5.62 µM (inactive),4.65 µM (inactive),2.96 µM (inactive),1.85 µM,1.6 µM (inactive),1.88 µM (inactive),1.98 µM (inactive),
CCCOCN1COCN/C1=N\C#N,,,> 100 µM (inactive),> 100 µM (inactive),> 100 µM (inactive),> 100 µM (inactive),,> 100 µM (inactive),52.4 µM (inactive),69.7 µM (inactive),,,22 µM (inactive),> 100 µM (inactive),> 100 µM (inactive),17.1 µM,> 100 µM (inactive),> 100 µM (inactive),15.3 µM (inactive),
Cc1ccc(Sc2ccc(C)cc2[N+](=O)[O-])c([N+](=O)[O-])c1,,,> 100 µM (inactive),> 100 µM (inactive),> 100 µM (inactive),> 100 µM (inactive),,> 100 µM (inactive),> 100 µM (inactive),> 100 µM (inactive),,,> 100 µM (inactive),> 100 µM (inactive),> 100 µM (inactive),> 100 µM,> 100 µM (inactive),> 100 µM (inactive),> 100 µM (inactive),
COC(=O)C1=C(C(=O)OC)C2C(C)=CC(C)=CN2C(C#N)=C(SC)S1 (configuration not stated),,,51.8 µM (inactive),37.2 µM (inactive),14.6 µM (inactive),23.1 µM (inactive),,28.4 µM (inactive),28.4 µM (inactive),21.6 µM (inactive),,,30.8 µM (inactive),52.4 µM (inactive),23.6 µM (inactive),19.7 µM,19.5 µM (inactive),17 µM (inactive),16.1 µM (inactive),
CN1C/C(=C\c2ccccc2)C2=NN(C(N)=S)[C@H](c3ccccc3)[C@@H]2C1,,,> 100 µM (inactive),> 100 µM (inactive),,> 100 µM (inactive),,> 100 µM (inactive),76.7 µM (inactive),0.276 µM (active),,,64 µM (inactive),> 100 µM (inactive),89.1 µM (inactive),> 100 µM,21.7 µM (inactive),75.5 µM (inactive),34.4 µM (inactive),
c1csc(-c2nccc3c2[nH]c2ccccc23)c1,21.6 µM (inactive),46 µM (inactive),18.3 µM (inactive),21.8 µM (inactive),16.7 µM (inactive),21.8 µM (inactive),27.9 µM (inactive),20.5 µM (inactive),24.5 µM (inactive),,3.35 µM (inactive),18.3 µM (inactive),18.1 µM (inactive),27.7 µM (inactive),22.2 µM (inactive),20.4 µM,29.3 µM (inactive),12 µM (inactive),16.3 µM (inactive),
C[N+](C)(C)CC(=O)N/N=C(\CCC(=O)NCCc1ccccc1)CC(=O)c1ccccc1,,,> 100 µM (inactive),> 100 µM (inactive),> 100 µM (inactive),> 100 µM (inactive),,> 100 µM (inactive),> 100 µM (inactive),> 100 µM (inactive),,,> 100 µM (inactive),> 100 µM (inactive),> 100 µM (inactive),> 100 µM,> 100 µM (inactive),> 100 µM (inactive),,
O=C(CSc1nnc(Cc2ccccc2)o1)Nc1cccc([N+](=O)[O-])c1,,,> 100 µM (inactive),> 100 µM (inactive),> 100 µM (inactive),> 100 µM (inactive),,> 100 µM (inactive),> 100 µM (inactive),> 100 µM (inactive),,,> 100 µM (inactive),,> 100 µM (inactive),> 100 µM,> 100 µM (inactive),> 100 µM (inactive),> 100 µM (inactive),
Cc1cccc(C)c1NC(=O)CCC(=O)CC(=O)C(C)C,,,> 100 µM (inactive),> 100 µM (inactive),> 100 µM (inactive),> 100 µM (inactive),,> 100 µM (inactive),> 100 µM (inactive),> 100 µM (inactive),,,> 100 µM (inactive),> 100 µM (inactive),> 100 µM (inactive),> 100 µM,> 100 µM (inactive),> 100 µM (inactive),> 100 µM (inactive),
NC(=O)C(=O)N/N=C1\C(=O)N(c2ccc(Cl)cc2Cl)C(=O)C1C(=O)Nc1ccc(Cl)cc1Cl (configuration not stated),,,> 100 µM (inactive),> 100 µM (inactive),> 100 µM (inactive),> 100 µM (inactive),,> 100 µM (inactive),> 100 µM (inactive),> 100 µM (inactive),,,> 100 µM (inactive),> 100 µM (inactive),> 100 µM (inactive),> 100 µM,> 100 µM (inactive),> 100 µM (inactive),> 100 µM (inactive),
CC1=CSC(O)(c2ccc(Cl)cc2)c2noc(=O)n21 (configuration not stated),71.1 µM (inactive),,> 100 µM (inactive),14.4 µM (inactive),59.6 µM (inactive),85.9 µM (inactive),> 100 µM (inactive),72.1 µM (inactive),> 100 µM (inactive),57.7 µM (inactive),66.4 µM (inactive),30.1 µM (inactive),> 100 µM (inactive),> 100 µM (inactive),> 100 µM (inactive),72.9 µM,,> 100 µM (inactive),71.6 µM (inactive),> 100 µM (inactive)
